One test has as its target Acetylcholinesterase (Homo sapiens, UniProt P22303). Kind of test: Inhibition of AChE (unknown origin).
Acetylcholinesterase, sequence (P22303 whole entry): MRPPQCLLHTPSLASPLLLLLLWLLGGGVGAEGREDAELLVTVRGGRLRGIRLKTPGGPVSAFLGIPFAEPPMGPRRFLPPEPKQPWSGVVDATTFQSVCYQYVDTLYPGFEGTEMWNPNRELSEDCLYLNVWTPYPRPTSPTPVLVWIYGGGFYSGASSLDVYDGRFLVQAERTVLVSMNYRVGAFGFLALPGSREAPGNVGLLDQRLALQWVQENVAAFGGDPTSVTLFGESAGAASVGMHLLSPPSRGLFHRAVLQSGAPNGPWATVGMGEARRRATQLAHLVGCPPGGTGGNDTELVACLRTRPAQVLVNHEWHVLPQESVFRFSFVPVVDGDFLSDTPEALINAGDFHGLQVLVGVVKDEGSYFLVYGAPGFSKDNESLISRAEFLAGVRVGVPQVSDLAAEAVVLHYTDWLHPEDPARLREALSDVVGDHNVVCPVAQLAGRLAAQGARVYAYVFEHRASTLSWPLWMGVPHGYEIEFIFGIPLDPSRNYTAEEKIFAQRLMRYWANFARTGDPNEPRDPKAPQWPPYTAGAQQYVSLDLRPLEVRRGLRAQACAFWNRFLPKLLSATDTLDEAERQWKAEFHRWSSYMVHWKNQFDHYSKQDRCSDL
Glycogen synthase kinase-3 beta, sequence (P49841 whole entry): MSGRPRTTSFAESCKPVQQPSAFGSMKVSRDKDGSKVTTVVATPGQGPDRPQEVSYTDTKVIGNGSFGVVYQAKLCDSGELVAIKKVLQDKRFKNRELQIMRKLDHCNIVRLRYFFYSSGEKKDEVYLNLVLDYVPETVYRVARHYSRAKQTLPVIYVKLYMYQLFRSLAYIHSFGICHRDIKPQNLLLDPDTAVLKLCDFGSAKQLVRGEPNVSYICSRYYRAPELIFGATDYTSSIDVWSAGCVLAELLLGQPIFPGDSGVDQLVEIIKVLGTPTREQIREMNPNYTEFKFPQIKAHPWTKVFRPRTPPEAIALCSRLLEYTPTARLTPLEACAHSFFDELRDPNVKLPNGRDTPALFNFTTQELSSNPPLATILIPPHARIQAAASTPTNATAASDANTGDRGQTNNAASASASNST
The IC50 is the concentration that inhibits the measured activity by half. `O=c1c(OC2O[C@H](CO)[C@H](O)[C@H](O)[C@H]2O)c(-c2ccc(O)cc2)oc2cc(O)cc(O)c12` (stereo partly drawn) [KAEMPFEROL 3-O-D-GALACTOSIDE] registered an IC50 of 0.012 µM.
Usually Ki stands for the dissociation constant of the complex between target and ligand, obtained from inhibition or displacement. For the compound `CC1(C)C=Cc2c(cc(O)c3c(=O)c4c(oc23)-c2ccc(O)cc2OC(C(C)(C)O)C4)O1` (configuration not stated) [NEOCYCLOMORUSIN], the inhibitory constant (Ki) came out at 3.1 µM.
For the compound `CC(C)=CCc1c(-c2ccc(O)cc2O)oc2c(CC=C(C)C)c(O)cc(O)c2c1=O` [KUWANON C], the affinity, expressed as Ki, was 3.1 µM.
Still for that read-out and setting: the same measure for `CC(C)=CC1Oc2cc(O)ccc2-c2oc3c4c(cc(O)c3c(=O)c21)OC(C)(C)C=C4` (configuration not stated) [CYCLOMORUSIN]: 3.1 µM.
Compound `COc1cc(O)c(-c2cc(=O)c3c(O)cc(O)cc3o2)cc1C/C=C(\C)CCC=C(C)C` displayed an IC50 of 11 µM and a Ki of 3.1 µM.
The compound `COc1cc2occ(-c3ccc(OC4CCN(Cc5ccccc5)CC4)cc3)c(=O)c2cc1OC` showed an IC50 of 0.093 µM.
Compound `O=c1c(O)c(-c2ccc(O)c(O)c2)oc2cc(O)cc(O)c12` [QUERCETIN] displayed an IC50 of 354 µM.
The compound `CC(C)=CCc1c(-c2ccc(O)cc2O)oc2c3c(cc(O)c2c1=O)OC(C)(C)C=C3` [MORUSIN] registered an inhibitory constant (Ki) of 3.1 µM.
As for `CC(C)(O)CCc1c(-c2ccc(O)cc2O)oc2c3c(cc(O)c2c1=O)OC(C)(C)C=C3` [MORUSINOL], the Ki was 3.1 µM.
In turn, `COc1cc(O)c(C2CC(=O)c3c(O)cc(O)cc3O2)cc1C/C=C(\C)CCC=C(C)C` (configuration not stated) [KUWANONU] had an inhibition constant Ki of 3.1 µM.
The compound `CC(C)=CCC/C(C)=C/Cc1cc(-c2cc(=O)c3c(O)cc(O)cc3o2)c(O)cc1O` yielded a half-inhibitory concentration (IC50) of 16.2 µM and a Ki of 3.1 µM.
`O=c1c(O)c(-c2cc(O)c(O)c(O)c2)oc2cc(O)cc(O)c12` [MYRICETIN] yielded a concentration for half-maximal inhibition (IC50) of 0.012 µM.
The same measure, in the same setting: for `O=c1c(O)c(-c2ccccc2)oc2cc(O)cc(O)c12` [GALANGIN] the value was 0.012 µM.
Take `COc1cc2occ(-c3ccc(N4CCCC4)cc3)c(=O)c2cc1OC`: 1.63 µM corresponded to half-maximal inhibition (IC50).
On to `O=c1cc(-c2ccc(O)cc2)oc2cc(O)cc(O)c12` [APIGENIN], for which half-maximal inhibition (IC50) required 0.012 µM.
`CC(C)=CCC/C(C)=C/Cc1cc(C2CC(=O)c3c(O)cc(O)cc3O2)c(O)cc1O` (configuration not stated) [KUWANON E]: the Ki is 3.1 µM.
In the case of `O=c1c(O)c(-c2ccc(O)c(O)c2)oc2cc(O)ccc12` [FISETIN], the half-maximal inhibitory concentration (IC50) was 0.012 µM.
`C[C@@H]1O[C@@H](OC[C@H]2O[C@@H](Oc3c(-c4ccc(O)c(O)c4)oc4cc(O)cc(O)c4c3=O)[C@H](O)[C@@H](O)[C@@H]2O)[C@H](O)[C@H](O)[C@H]1O` [RUTIN]: the half-inhibitory concentration (IC50) amounted to 0.012 µM.

A further test concerns the target Glycogen synthase kinase-3 beta (Homo sapiens, UniProt P49841). Kind of test: Inhibition of Homo sapiens (human) recombinant GSK3beta after 30 min by Kinase-Glo assay. (In Kinase-Glo more light means more ATP remaining.)
In the case of `C[C@@H]1O[C@@H](O[C@H]2[C@H](Oc3cc(O)c4c(c3)O[C@H](c3ccc(O)cc3)CC4=O)O[C@H](CO)[C@@H](O)[C@@H]2O)[C@H](O)[C@H](O)[C@H]1O` [NARINGIN], the half-inhibitory concentration (IC50) turned out to be 100 µM.
In the case of `O=c1c(O)c(-c2ccc(O)c(O)c2)oc2cc(O)cc(O)c12` [QUERCETIN], the IC50 was 2 µM.
On the same count and under the same terms, the same measure for `COc1ccc([C@@H]2CC(=O)c3c(O)cc(O[C@@H]4O[C@H](CO[C@@H]5O[C@@H](C)[C@H](O)[C@@H](O)[C@H]5O)[C@@H](O)[C@H](O)[C@H]4O)cc3O2)cc1O` [HESPERIDIN]: 100 µM; for `O=c1cc(-c2ccc(O)cc2)oc2cc(O)cc(O)c12` [APIGENIN]: 1.9 µM.
Regarding `O=C1C[C@@H](c2ccc(O)cc2)Oc2cc(O)cc(O)c21` [NARINGENIN], the 50% inhibitory concentration (IC50) came to 45.7 µM.
Same read-out and setting: for `O=c1cc(-c2ccc(O)c(O)c2)oc2cc(O)cc(O)c12` [LUTEOLIN] the value was 1.5 µM; for `COc1ccc([C@@H]2CC(=O)c3c(O)cc(O)cc3O2)cc1O` [HESPERETIN], 26.9 µM.

A further test deals with Beta-secretase 1 (Homo sapiens, UniProt P56817). The experiment in a line: Inhibition of BACE1 (unknown origin).
Beta-secretase 1, sequence (P56817 whole entry): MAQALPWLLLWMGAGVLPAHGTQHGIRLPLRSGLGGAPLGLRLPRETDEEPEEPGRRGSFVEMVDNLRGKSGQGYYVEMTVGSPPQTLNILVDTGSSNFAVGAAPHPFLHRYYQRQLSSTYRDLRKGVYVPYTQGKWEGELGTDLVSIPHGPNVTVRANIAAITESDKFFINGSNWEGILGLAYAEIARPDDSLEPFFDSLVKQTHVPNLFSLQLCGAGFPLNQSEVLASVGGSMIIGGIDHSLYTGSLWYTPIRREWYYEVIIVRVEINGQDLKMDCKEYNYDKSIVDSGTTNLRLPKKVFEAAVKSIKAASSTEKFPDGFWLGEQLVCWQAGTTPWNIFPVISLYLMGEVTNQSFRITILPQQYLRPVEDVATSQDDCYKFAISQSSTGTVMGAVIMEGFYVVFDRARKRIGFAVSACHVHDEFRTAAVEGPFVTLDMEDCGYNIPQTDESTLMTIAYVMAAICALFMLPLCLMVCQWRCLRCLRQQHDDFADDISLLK
Turning to `O=c1c(O)c(-c2ccc(O)cc2)oc2cc(O)cc(O)c12` [KAEMPFEROL], the half-maximal inhibitory concentration (IC50) came out at 14.7 µM.
Still for that read-out and setting: the same measure for `O=c1c(O)c(-c2cc(O)c(O)c(O)c2)oc2cc(O)cc(O)c12` [MYRICETIN]: 2.8 µM; for `O=c1c(O)c(-c2ccc(O)cc2O)oc2cc(O)cc(O)c12` [MORIN]: 21.7 µM.

For a further test, the target named is Cholinesterase (Homo sapiens, UniProt P06276). The experiment in a line: Inhibition of BuChE (unknown origin).
Cholinesterase, sequence (P06276 whole entry): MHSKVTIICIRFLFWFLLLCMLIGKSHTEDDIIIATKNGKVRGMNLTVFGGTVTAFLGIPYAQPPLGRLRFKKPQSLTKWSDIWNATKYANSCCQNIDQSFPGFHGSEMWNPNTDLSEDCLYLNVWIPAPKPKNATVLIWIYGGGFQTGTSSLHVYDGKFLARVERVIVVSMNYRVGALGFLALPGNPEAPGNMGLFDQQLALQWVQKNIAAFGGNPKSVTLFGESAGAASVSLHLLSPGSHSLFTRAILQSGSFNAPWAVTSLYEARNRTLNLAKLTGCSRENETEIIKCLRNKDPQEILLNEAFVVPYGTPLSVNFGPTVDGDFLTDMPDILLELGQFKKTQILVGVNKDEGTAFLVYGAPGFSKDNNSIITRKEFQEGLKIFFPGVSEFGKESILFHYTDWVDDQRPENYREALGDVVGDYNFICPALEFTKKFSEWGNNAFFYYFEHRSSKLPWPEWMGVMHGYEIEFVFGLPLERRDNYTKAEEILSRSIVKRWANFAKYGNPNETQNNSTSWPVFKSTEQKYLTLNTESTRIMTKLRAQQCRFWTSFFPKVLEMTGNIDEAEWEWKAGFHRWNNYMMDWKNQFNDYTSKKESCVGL
For `CC1(C)C=Cc2c(cc(O)c3c(=O)c4c(oc23)-c2ccc(O)cc2OC(C(C)(C)O)C4)O1` (configuration not stated) [NEOCYCLOMORUSIN], the half-inhibitory concentration (IC50) is 1.7 µM.
Compound `CC(C)=CCc1c(-c2ccc(O)cc2O)oc2c(CC=C(C)C)c(O)cc(O)c2c1=O` [KUWANON C] had an IC50 of 1.7 µM.
Turning to `CC(C)=CC1Oc2cc(O)ccc2-c2oc3c4c(cc(O)c3c(=O)c21)OC(C)(C)C=C4` (configuration not stated) [CYCLOMORUSIN], the concentration for half-maximal inhibition (IC50) is 1.7 µM.
In the case of `COc1cc(O)c(-c2cc(=O)c3c(O)cc(O)cc3o2)cc1C/C=C(\C)CCC=C(C)C`, inhibition was half-maximal at 11 µM (IC50) and the Ki was 1.74 µM.
Consider `O=c1c(O)c(-c2ccc(O)c(O)c2)oc2cc(O)cc(O)c12` [QUERCETIN], for which the 50% inhibitory concentration (IC50) turned out to be 421 µM.
Still for that read-out and setting: for `CC(C)=CCc1c(-c2ccc(O)cc2O)oc2c3c(cc(O)c2c1=O)OC(C)(C)C=C3` [MORUSIN] the value was 1.7 µM; for `CC(C)(O)CCc1c(-c2ccc(O)cc2O)oc2c3c(cc(O)c2c1=O)OC(C)(C)C=C3` [MORUSINOL], 1.7 µM.
On the same count and under the same terms, the same measure for `COc1cc(O)c(C2CC(=O)c3c(O)cc(O)cc3O2)cc1C/C=C(\C)CCC=C(C)C` (configuration not stated) [KUWANONU]: 1.7 µM; for `CC(C)=CCC/C(C)=C/Cc1cc(-c2cc(=O)c3c(O)cc(O)cc3o2)c(O)cc1O`: 16.2 µM.
Compound `CC(C)=CCC/C(C)=C/Cc1cc(C2CC(=O)c3c(O)cc(O)cc3O2)c(O)cc1O` (configuration not stated) [KUWANON E] had a half-maximal inhibitory concentration (IC50) of 1.7 µM.

Test system in a further test: not listed separately
Kind of test: Inhibition of NADPH oxidase in Homo sapiens (human) HUVEC cells. Format: cell-based.
`Oc1cc(O)c2c(c1)O[C@H](c1ccc(O)c(O)c1)[C@H](O)C2` [(-)-EPICATECHIN]: the IC50 is more than 100 µM.
In the case of `Oc1cc(O)c2c(c1)O[C@H](c1cc(O)c(O)c(O)c1)[C@H](O)C2` [EPIGALLOCATECHIN], the midpoint of inhibition, the IC50, lay at 8 µM.
Still for that read-out and setting: for `O=c1c(O)c(-c2ccc(O)cc2)oc2cc(O)cc(O)c12` [KAEMPFEROL] the value was 10 µM; for `OCCc1ccc(O)c(O)c1` [HYDROXYTYROSOL], 7.5 µM; for `O=c1c(O)c(-c2ccc(O)c(O)c2)oc2cc(O)cc(O)c12` [QUERCETIN], more than 100 µM.
Take `COc1ccc(-c2cc(=O)c3c(O)cc(O)cc3o2)cc1O` [DIOSMETIN]: it took 7.6 µM to reach half-maximal inhibition (IC50).
As to `OCCc1ccc(O)cc1` [TYROSOL], the concentration for half-maximal inhibition (IC50) is 7.5 µM.
Compound `COc1cc([C@H]2Oc3cc(O)cc(O)c3C[C@H]2O)ccc1O` [3'-O-METHYL EPICATECHIN] showed a concentration for half-maximal inhibition (IC50) of 7.9 µM.
Still for that read-out and setting: for `O=C1c2c(O)cc(O)cc2O[C@H](c2ccc(O)c(O)c2)[C@H]1O` [(+)-TAXIFOLIN] the value was 12 µM; for `Oc1cc(O)c2c(c1)O[C@H](c1ccc(O)c(O)c1)[C@H](O)[C@H]2c1c(O)cc(O)c2c1O[C@H](c1ccc(O)c(O)c1)[C@H](O)C2` [PROCYANIDIN B2], 3.8 µM.
Turning to `COc1cc(-c2oc3cc(O)cc(O)c3c(=O)c2O)ccc1O` [ISORHAMNETIN], the midpoint of inhibition, the IC50, lay at 2.8 µM.
